Columns and labels:
[1] = Indirect calorimetry and food intake in metabolic cages; format: in vivo, mouse
Protocol: To examine the effects of sphingolipid-like compound 893 on whole body metabolism, indirect calorimetry was performed. Male C57BL/6J mice were maintained on the SD or HFD for 10-12 weeks, acclimated to metabolic cages that mimic the home environment, and then treated with vehicle or 120 mg/kg sphingolipid-like compound 893 by gavage at ZT8.5. […] As expected, RER values were lower during both light and dark cycles and diurnal fluctuations in substrate utilization were blunted in HFD-fed mice relative to SD controls (FIGS. 29 & 30). […] Consistent with the pharmacokinetic properties of sphingolipid-like compound 893 (see FIG. 12), RER returned to control values 24 h after sphingolipid-like compound 893 treatment (FIGS. 28 & 29). Animals were similarly responsive to a second treatment with sphingolipid-like compound 893 given 48 h after the first.
Metabolic parameters were measured using the Phenomaster system (TSE Systems Inc., Chesterfield, Mo.). The climate chamber was set to 21° C. and 50% humidity with a 12:12 h light-dark cycle. Mice were singly housed inside the chamber and acclimated for 48 h prior to data collection. VO2, VCO2, and food intake was measured every 27 min. Respiratory exchange ratio (RER) was calculated using the formula RER=VCO2/VO2. Energy expenditure was calculated using the equation EE=1.44(3.941×VO2+1.106×VCO2). In the indirect calorimetry studies in FIGS. 12 to 14, C57BL/6J mice were maintained on the HFD or SD for 10-12 weeks prior to evaluation and were naïve to therapy. Mice were serially evaluated in cohorts of 4 vehicle- and 4 sphingolipid-like compound 893-treated mice using 8 metabolic cages. Treatment was by gavage at ZT8.5, sphingolipid-like compound 893 was administered at 120 mg/kg in water. To evaluate the effect of morning treatment, vehicle or 120 mg/kg sphingolipid-like compound 893 was administered at ZT2 to 18 week old C57BL/6J males on a standard diet. Liquid diet experiments were also performed on 18 week old C57BL/6J males; mice were treated with sphingolipid-like compound 893 at ZT8.5 and food access was restricted at ZT11. Liquid feed (AIN-76, BioServ, Flemington, N.J.) was prepared at 1000 kcal/L in milli-Q water and at ZT12, mice were gavaged with 400 μL (0.4 kcal) of diet, corresponding to approximately 3 h of ad libitum consumption of standard chow. For the pair feeding study, RER was monitored over 12 h in mice maintained on the HFD for 22 weeks (31 weeks of age); pair-fed mice were used after a 48 h wash-out period and provided with the average amount of food they ate over 24 h after sphingolipid-like compound 893 treatment (92.5 mg or 0.4 kcal).
During measurements of one SD cohort (4 vehicle- and 4 sphingolipid-like compound 893-treated mice), a leak in the reference CO2 system was detected, the O2 and CO2 data was censored until the leak was corrected (70-74 h). Feeding and activity measurements were not compromised and were still analyzed. Occasionally, uneaten food was found on the floor of the cage precluding use of the hopper sensor to accurately monitor food intake. In these instances, food intake data was censored for the prior 24 h period (days 2 and 3 for mouse 8 (SD+sphingolipid-like compound 893) and mouse 8 (SD+vehicle), and day 3 for mouse 8 (HFD+sphingolipid-like compound 893) and mouse 1 (HFD+vehicle)). […] In rare cases, inadvertent pharyngeal administration of gavage material occurred. These mice were not euthanized, but food intake, calorimetry, and activity data from these animals was excluded from the analysis for 1 week after this event (mouse 2 (HFD+sphingolipid-like compound 893) after the second treatment on day 3 and mouse 5 (HFD+sphingolipid-like compound 893) after the first dose on day 1).

[2] = system: protein phosphatase 2A (PP2A); details: cited from earlier work
[3] = mice on SD or HFD 10-12 weeks, 120 mg/kg p.o. at ZT8.5

Q: For `CCCCCCCCc1ccc([C@H]2CCN[C@@H]2CO)cc1.Cl` [compound 893], which “Food intake and RER, morning dosing” value ([1]; 120 mg/kg at ZT2, mice on standard diet) is on record?
A: still decreased both food intake and RER

Q: And the “Activity (XY beam breaks)” value ([1]; 120 mg/kg p.o. at ZT8.5)?
A: trend towards reduced activity

Q: What about the “Energy expenditure (Weir formula)” value ([1]; 120 mg/kg p.o. at ZT8.5) of the same compound?
A: not significantly affected

Q: What about the “Time after treatment at which RER returned to control values” ([1]; 120 mg/kg p.o. at ZT8.5) of the same compound?
A: 24 h

Q: And the “Food intake and body weight loss, HFD for 22 weeks” value ([1]; mice on HFD 22 weeks, 120 mg/kg once at ZT8.5)?
A: the suppression of food intake and body weight loss appeared to increase

Q: What about the “Food intake in metabolic caging” value [1, 3] of the same compound?
A: reduced food intake

Q: What about the “Respiratory exchange ratio (RER)” value [1, 3] of the same compound?
A: reduced the RER in both HFD- and SD-fed mice

Q: What about the “Effect on PP2A” value [2] of the same compound?
A: activate protein phosphatase 2A (PP2A)
